From patent EP1660440B1, “ACYLOXYALKYL CARBAMATE PRODRUGS, METHODS OF SYNTHESIS AND USE” (priority 2003, dated 2005) come the findings set out here.

One data set has as its system Caco-2 cells. To be noted: human, Caco-2, 200 uM.
Another data set has as its system Pancreatin. Kind of data set: Pancreatin stability. It counts as in vitro ADME, porcine. To be noted: 5 µM. On the procedure: Pancreatin Stability: Stability studies were conducted by incubating prodrug (5 µM) with 1 % (w/v) pancreatin (Sigma, P-1625, from porcine pancreas) in 0.025 M Tris buffer containing 0.5 M NaCl (pH 7.5) at 37 °C for 60 min. The reaction was stopped by addition of 2 volumes of methanol. After centrifugation at 14,000 rpm for 10 min, the supernatant was removed and analyzed by LC/MS/MS.

The conditions of data set [1]: aqueous buffer.
Protocol: (§1) The stabilities of prodrugs were evaluated in one or more in vitro systems using a variety of tissue preparations following methods known in the art. The chemical stability of prodrugs in aqueous buffers at pH's of 2.0, 7.4 and 8.0 were also measured. […] Each preparation was incubated with test compound at 37°C for one hour. Aliquots (50 µL) were removed at 0, 30, and 60 min and quenched with 0.1 % trifluoroacetic acid in acetonitrile.
For data set [2] the following is noted: rat, plasma, 2 µM.
Protocol: as §1
The conditions of data set [3]: human, plasma, 2 µM.
Protocol: as §1
The conditions of data set [4]: rat, 2 µM.
Protocol: as §1
The conditions of data set [5]: human, 2 µM.
Protocol: as §1
For data set [6] the following is noted: human, s9, 1 h, 5 µM.
Protocol: For stability studies, prodrug (5 µM) was incubated in Caco-2 homogenate S9 fraction (0.5 mg protein per mL) for 60 min at 37°C. Concentrations of intact prodrug and released baclofen were determined at zero time and 60 minutes using LC/MS/MS.
[7] abbreviates: 1 % (w/v) pancreatin, pH 7.5, 37 °C, after 60 min.

Where two headings read alike, the source gives them in different places.

Protocol for Caco-2 cells: For example, cellular permeability may be evaluated by examining the flux of a prodrug across a cultured polarized cell monolayer (e.g., Caco-2 cells). Caco-2 cells obtained from continuous culture (passage less than 28) were seeded at high density onto Transwell polycarbonate filters. Cells were maintained with DMEM / 10% fetal calf serum + 0.1 mM nonessential amino acids + 2 mM L-Gln, 5% CO2/ / 95% O2, 37°C until the day of the experiment. Permeability studies were conducted at pH 6.5 apically (in 50 mM MES buffer containing 1 mM CaCl2, 1mM MgCl2, 150 mM NaCl, 3 mM KCl, 1 mM NaH2PO4, 5 mM glucose) and pH 7.4 basolaterally (in Hanks' balanced salt solution containing 10 mM HEPES) in the presence of efflux pump inhibitors (250 µM MK-571, 250 µM Verapamil, 1 mM Ofloxacin). Inserts were placed in 12 or 24 well plates containing buffer and incubated for 30 min at 37C°. Prodrug (200 µM) was added to the apical or basolateral compartment (donor) and concentrations of prodrug and/or released parent drug in the opposite compartment (receiver) were determined at intervals over 1 hour using LC/MS/MS. Values of apparent permeability (Papp) were calculated using the equation: Papp = Vr (dC/dt)//(ACo) [formula]
Here Vr is the volume of the receiver compartment in mL; dC/dt is the total flux ofprodrug and parent drug (µM/s), determined from the slope of the plot of concentration in the receiver compartment versus time; Co is the initial concentration of prodrug in µM; A is the surface area of the membrane in cm^2.

As for `CCCC(=O)OC(C)OC(=O)NC[C@H](CC(=O)[O-])c1ccc(Cl)cc1.[Na+]` (stereo partly drawn) [(32), Sodium 4-[(1-Butanoyloxyethoxy)carbonylamino]-(3R)-(4-chlorophenyl)-butanoate], in the data set with Caco-2 cells, the “Ratio A-BB-A” value is reported as 7.6.

Take `CC(OC(=O)NC[C@H](CC(=O)[O-])c1ccc(Cl)cc1)OC(=O)C(C)(C)C.[Na+]` (stereo partly drawn) [(36), Sodium 4-[(1-Pivaloyrloxyethoxy)carbonylamino]-(3R)-(4-chlorophenyl)-butanoate]: in the data set on Caco-2 cells, the “Ratio A-BB-A” value was 1.5.

With `CCC(=O)OC(OC(=O)NC[C@H](CC(=O)[O-])c1ccc(Cl)cc1)C(C)C.[Na+]` (stereo partly drawn) [(48), Sodium 4-[(1-Propanoyloxyisobutoxy)carbonylamino]-(3R)-(4-chlorophenyl)-butanoate], the “Ratio A-BB-A” value in the data set with Caco-2 cells amounted to 6.5.

As to `COc1ccc(C(=O)OCOC(=O)NC[C@H](CC(=O)[O-])c2ccc(Cl)cc2)cc1.[Na+]` [(53), Sodium 4-[(4-Methoxybenzoyloxymethoxy)carbonylamino]-(3R)-(4-chlorophenyl)-butan oate], in the data set with Caco-2 cells, the “Ratio A-BB-A” value was 2.4.

As to `CCCC(OC(=O)NC[C@H](CC(=O)[O-])c1ccc(Cl)cc1)OC(=O)c1ccccc1.[Na+]` (stereo partly drawn) [(71), Sodium 4-[(1-Benzoyloxybutoxy)carbonylamino]-(3R)-(4-chlorophenyl)-butanoate], the “Ratio A-BB-A” value in the data set with Caco-2 cells is 7.1.

On to `CCCC(OC(=O)NC[C@H](CC(=O)[O-])c1ccc(Cl)cc1)OC(=O)C(C)C.[Na+]` (stereo partly drawn) [(72), Sodium 4-[(1-Isobutanoyloxybutoxy)carbonylamino]-(3R)-(4-chlorophenyl)-butanoate], for which the “Ratio A-BB-A” value with Caco-2 cells stood at 3.5.

For the compound `CCCC(=O)OC(CCC)OC(=O)NC[C@H](CC(=O)[O-])c1ccc(Cl)cc1.[Na+]` (stereo partly drawn) [(73), Sodium 4-[(1-Butanoyloxybutoxy)carbonylamino]-(3R)-(4-chlorophenyl)-butanoate], the “Ratio A-BB-A” value with Caco-2 cells came out at 3.2.

For the compound `CC(C)C(=O)OC(OC(=O)NC[C@H](CC(=O)[O-])c1ccc(Cl)cc1)C1CCCCC1.[Na+]` (stereo partly drawn) [(84), Sodium 4-[(1-Isobutanoyloxy-1-cyclohexylmethoxy)carbonylamino]-(3R)-(4-chlorophenyl)-butanoate], the “% of Baclofen Released” value in the data set with Pancreatin (setting [7]) is on record as 40%; in data set [1] (1 h, pH 2), 0%; in data set [1] (1 h, pH 7.4), 0%; in data set [1] (1 h, pH 8), 1%; in data set [2] (1 h), 11%; in data set [3] (1 h), 4%. In addition, the “% of Baclofen Released” value in data set [4] (s9, 1 h) was 91%; in data set [5] (s9, 1 h), 82%; in data set [6], 76%. Further, the “% of Prodrug Remaining” value in the data set on Pancreatin (setting [7]) is given as 47%; in data set [1] (1 h, pH 2) it was 85%; in data set [1] (1 h, pH 7.4), 84%; in data set [1] (1 h, pH 8) it was 94%; in data set [2] (1 h), 91%; in data set [3] (1 h), 89%. In addition, the “% of Prodrug Remaining” value in data set [4] (s9, 1 h) amounted to 4%; in data set [5] (s9, 1 h) it was 2%; in data set [6], 13%.

On to `CCCC(=O)OC(OC(=O)NC[C@H](CC(=O)[O-])c1ccc(Cl)cc1)C1CCCCC1.[Na+]` (stereo partly drawn) [(85), Sodium 4-[(1-Butanoyloxy-1-cyclohexylmethoxy)carbonylamino]-(3R)-(4-chlorophenyl)-butanoate], for which the “% of Baclofen Released” value in the data set on Pancreatin (setting [7]) worked out at 64%; in data set [1] (1 h, pH 2), 0%; in data set [1] (1 h, pH 7.4), 0%; in data set [1] (1 h, pH 8) it was 0%; in data set [2] (1 h) it was 12%; in data set [3] (1 h) it was 4%. Further, the “% of Baclofen Released” value in data set [4] (s9, 1 h) was 91%; in data set [5] (s9, 1 h), 84%; in data set [6], 82%. Moreover, the “% of Prodrug Remaining” value in the data set on Pancreatin (setting [7]) worked out at 15%; in data set [1] (1 h, pH 2), 82%; in data set [1] (1 h, pH 7.4), 92%; in data set [1] (1 h, pH 8) it was 93%; in data set [2] (1 h), 82%; in data set [3] (1 h), 95%. The “% of Prodrug Remaining” value in data set [4] (s9, 1 h) came to 2%; in data set [5] (s9, 1 h), 2%; in data set [6], 4%.

In the case of `CCC[C@H](OC(=O)NC[C@H](CC(=O)[O-])c1ccc(Cl)cc1)OC(=O)C(C)C.[Na+]` [(91), Sodium 4-{[(1S)-Isobutanoyloxybutoxy]carbonylamino}-(3R)-(4-chlorophenyl)-butanoate], the “% of Baclofen Released” value is on record as 78% in the data set on Pancreatin (setting [7]); 0% in data set [1] (1 h, pH 2); 0% in data set [1] (1 h, pH 7.4); 1% in data set [1] (1 h, pH 8); 10% in data set [2] (1 h); 2% in data set [3] (1 h). Moreover, the “% of Baclofen Released” value in data set [4] (s9, 1 h) is 70%; in data set [5] (s9, 1 h), 78%; in data set [6] it was 107%. In addition, the “% of Prodrug Remaining” value is 11% in the data set with Pancreatin (setting [7]); 100% in data set [1] (1 h, pH 2); 97% in data set [1] (1 h, pH 7.4); 94% in data set [1] (1 h, pH 8); 80% in data set [2] (1 h); 83% in data set [3] (1 h). Further, the “% of Prodrug Remaining” value was determined as 22% in data set [4] (s9, 1 h); 1% in data set [5] (s9, 1 h); 6% in data set [6].

As to `CC(C)C(=O)O[C@H](OC(=O)NC[C@H](CC(=O)[O-])c1ccc(Cl)cc1)C(C)C.[Na+]` [(100), Sodium 4-{[(1R)-Isobutanoyloxyisobutoxy]carbonylamino}-(3R)-(4-chlorophenyl) -butanoate], the “% of Baclofen Released” value with Pancreatin (setting [7]) turned out to be 27%; in data set [1] (1 h, pH 2), 0%; in data set [1] (1 h, pH 7.4), 0%; in data set [1] (1 h, pH 8), 0%; in data set [2] (1 h), 64%; in data set [3] (1 h), 3%. In addition, the “% of Baclofen Released” value was determined as 85% in data set [4] (s9, 1 h); 83% in data set [5] (s9, 1 h); 90% in data set [6]. In addition, the “% of Prodrug Remaining” value was 68% in the data set with Pancreatin (setting [7]); 101% in data set [1] (1 h, pH 2); 98% in data set [1] (1 h, pH 7.4); 95% in data set [1] (1 h, pH 8); 9% in data set [2] (1 h); 89% in data set [3] (1 h). The “% of Prodrug Remaining” value in data set [4] (s9, 1 h) is 3%; in data set [5] (s9, 1 h) it was 1%; in data set [6], 7%.

Regarding “Sodium 4-[(1-Benzoyloxgyethoxy)carbonylaminol-(3R)-(4-chlorophenyl)-butanoate [(40)]”, the “% of Baclofen Released” value with Pancreatin (pig, pancreatin, 1 h, pH 7.5) is 43/58%; in data set [1] (pH 2, 60 min) it was 103/0%; in data set [1] (pH 7.4, 60 min) it was 100/0%; in data set [1] (pH 8, 60 min) it was 107/2%; in data set [2] (60 min) it was 72/17%; in data set [3] (60 min) it was 101/2%. The “% of Baclofen Released” value is on record as 8/96% in data set [4] (s9, 60 min); 1/105% in data set [5] (s9, 60 min); 15/85% in data set [6]. Moreover, the “% of Prodrug Remaining” value is recorded as 43/58% in the data set with Pancreatin (pig, pancreatin, 1 h, pH 7.5); 103/0% in data set [1] (pH 2, 60 min); 100/0% in data set [1] (pH 7.4, 60 min); 107/2% in data set [1] (pH 8, 60 min); 72/17% in data set [2] (60 min); 101/2% in data set [3] (60 min). The “% of Prodrug Remaining” value in data set [4] (s9, 60 min) is on record as 8/96%; in data set [5] (s9, 60 min), 1/105%; in data set [6], 15/85%.
